One data set relates to VCAM-1. The data set can be described thus: In Vitro VCAM-1 Assay (TNF-α stimulated HAEC or HPAEC, cell ELISA). It counts as cell-based, human. Particulars: TNF-α (1 ng/ml) stimulated HAEC or HPAEC, approximately 16 hours. As for the experimental part:
Cell Culture and compound dosing: Cultured primary human aortic (HAEC) or pulmonary (HPAEC) endothelial cells were obtained from Clonetics, Inc., and were used below passage 9. Cells were seeded in 96 well plates such that they would reach 90–95% confluency by the following day. On the following day the cells were stimulated with TNF-α (1 ng/ml) in the presence or absence of compounds dissolved in DMSO such that the final concentration of DMSO is 0.25% or less. To establish a dose curve for each compound, four concentrations in 2- to 5-fold increments were used. Cells were exposed to TNF-α and compounds for approximately 16 hours. The next day the cells were examined under microscope to score for visual signs of toxicity or cell stress.
Following 16 hr exposure to TNF-α and compound the media was discarded and the cells were washed once with Hanks Balanced Salt Solution (HBSS)/Phosphate buffered saline (PBS) (1:1). Primary antibodies against VCAM-1 (0.25 μg/ml in HBSS/PBS+5% FBS) were added and incubated for 30–60 minutes at 37° C. Cells were washed with HBSS/PBS three times, and secondary antibody Horse Radish Peroxidase (HRP)-conjugated goat anti-mouse IgG (1:500 in HBSS/PBS+5% FBS) were added and incubated for 30 minutes at 37° C. Cells were washed with HBSS/PBS four time and TMB substrate were added and incubated at room temperature in the dark until there was adequate development of blue color. The length of time of incubation was typically 5–15 minutes. 2N sulfuric acid was added to stop the color development and the data was collected by reading the absorbance on a BioRad ELISA plate reader at OD 450 nm. The results are expressed as IC50 values (the concentration (micromolar) of compound required to inhibit 50% of the maximal response of the control sample stimulated by TNF-α only).

As to `COc1cc(OC)c(-c2cc3ccccc3s2)cc1/C=C/C(=O)c1ccccc1C(=O)[O-].[Na+]` [Example 9, 2-[3E-(5-Benzo[b]thiophen-2-yl-2,4-dimethoxy-phenyl)-acryloyl]-benzoic acid, sodium salt], the melting point (commonly the temperature, or range, at which the solid turns liquid) was 214 to 217 °C (dec.). In addition, the IC50 (as a rule, the concentration at which inhibition is half-maximal) in the data set with VCAM-1 (sodium salt) was under 5 µM.

In turn, `COCCOCCOCCOc1cc(OC)c(-c2cccs2)cc1/C=C/C(=O)c1ccc(C(=O)O)cc1` [Example 68, 4-[3E-(4-Methoxy-2-{2-[2-(2-methoxy-ethoxy)-ethoxy]-ethoxy}-5-thiophen-2-yl-phenyl)-acryloyl]-benzoic acid] showed a melting point of 137 to 138 °C. Also, the concentration for half-maximal inhibition (IC50) with VCAM-1 (Homo sapiens, 16 h) was under 5 µM.

The compound `COC(=O)c1ccc(C(=O)/C=C/c2cc(-c3cc4ccccc4s3)c(OC)cc2OC)cc1` [Example 118, 4-[3E-(5-Benzo[b]thiophen-2-yl-2,4-dimethoxy-phenyl)-acryloyl]-benzoic acid methyl ester] returned a melting point of 149 to 151 °C. In the data set on VCAM-1 (Homo sapiens, 16 h), the IC50 is under 10 µM.

`O=C(O)c1ccc(C(=O)/C=C/c2ccc(-c3cccs3)cc2F)cc1` [Example 30, 4-[3E-(2-Fluoro-4-thiophen-2-yl-phenyl)-acryloyl]-benzoic acid]: the melting point was over 260 °C. The IC50 with VCAM-1 (Homo sapiens, 16 h) was under 1 µM.

On to `COc1cc(OC)c(-c2nncn2CC(C)C)cc1/C=C/C(=O)c1ccc(C(=O)O)cc1` [Example 110, 4-{3E-[5-(4-Isobutyl-4H-[1,2,4]triazol-3-yl)-2,4-dimethoxy-phenyl]-acryloyl}-benzoic acid], for which the melting point was > 240 °C (dec.). Further, in the data set on VCAM-1 (Homo sapiens, 16 h), the IC50 is over 10 µM.

`CCOc1cc(OC)c(/C=C/C(=O)c2ccc(C(=O)O)cc2)cc1-c1cccs1` [Example 53, 4-[3E-(4-Ethoxy-2-methoxy-5-thiophen-2-yl-phenyl)-acryloyl]-benzoic acid] gave a melting point of 210 to 212 °C. In addition, in the data set on VCAM-1 (Homo sapiens, 16 h), the IC50 is under 5 µM.

For `COc1cc(-c2cccs2)ccc1C(=O)/C=C/c1ccc(C(=O)O)cc1` [Example 19, 4-[3-(2-Methoxy-4-thiophen-2-yl-phenyl)-3-oxo-E-propenyl]-benzoic acid], the melting point fell in the range of 193 to 195 °C. In addition, the IC50 in the data set with VCAM-1 (Homo sapiens, 16 h) is under 1 µM.

For the compound `COc1cc(OC)c(-c2cc3ccccc3[nH]2)cc1/C=C/C(=O)c1ccc(S(N)(=O)=O)cc1` [Example 84, 4-{3E-[5-(1H-Indol-2-yl)-2,4-dimethoxy-phenyl]-acryloyl}-benzenesulfonamide], the melting point lay within 185 to 187 °C. Moreover, the IC50 in the data set on VCAM-1 (Homo sapiens, 16 h) was under 5 µM.

In turn, `COc1cc(OC)c(-c2cc3ccccc3s2)cc1/C=C/C(=O)c1ccc(C(=O)NC(C)=O)cc1` [Example 95, N-Acetyl-4-[3E-(5-benzo[b]thiophen-2-yl-2,4-dimethoxy-phenyl)-acryloyl]-benzamide] gave a melting point of 228 to 229 °C. Also, the IC50 in the data set with VCAM-1 (Homo sapiens, 16 h) is under 1 µM.

`Cl.O=C(O)c1ccc(C(=O)/C=C/c2cc(-c3cccs3)ccc2OCCCN2CCOCC2)cc1` [Example 65, 4-{3E-[2-(3-Morpholin-4yl-propoxy)-5-thiophen-2-yl-phenyl]-acryloyl}-benzoic acid, hydrochloride] registered a melting point of 234 to 236 °C. Besides, the IC50 in the data set with VCAM-1 (Homo sapiens, 16 h) was under 1 µM.

`COc1cc(/C=C/C(=O)c2ccc(C(=O)O)cc2)cc(-c2cccs2)c1OC` [Example 8, 4-[3E-(3,4-Dimethoxy-5-thiophen-2-yl-phenyl)-acryloyl]-benzoic acid] returned a melting point of 231 °C. This compound gave an IC50 in the data set on VCAM-1 (Homo sapiens, 16 h) of under 1 µM.

In the case of `O=C(O)c1ccc(C(=O)/C=C/c2ccc(-c3cccs3)cc2)cc1` [Example 10, 4-[3E-(4-Thiophen-2-yl-phenyl)-acryloyl]-benzoic acid], the melting point was over 260 °C. Also, the half-inhibitory concentration (IC50) in the data set with VCAM-1 (Homo sapiens, 16 h) is under 5 µM.

In the case of `COc1cc(OC)c(-c2csc(C)n2)cc1/C=C/C(=O)c1ccc(C(=O)O)cc1` [Example 69, 4-{3E-[2,4-Dimethoxy-5-(2-methyl-thiazol-4-yl)-phenyl]-acryloyl}-benzoic acid], the melting point was 201 to 202 °C (dec.). Also, the concentration for half-maximal inhibition (IC50) in the data set with VCAM-1 (Homo sapiens, 16 h) was under 5 µM.

The compound `COc1cc(OCC(CO)CO)c(-c2cccs2)cc1/C=C/C(=O)c1ccc(S(N)(=O)=O)cc1` [Example 106, 4-{3E-[4-(3-Hydroxy-2-hydroxymethyl-propoxy)-2-methoxy-5-thiophen-2-yl-phenyl]-acryloyl}-benzenesulfonamide] had a melting point of 191 to 192 °C. Besides, in the data set with VCAM-1 (Homo sapiens, 16 h), the concentration for half-maximal inhibition (IC50) is under 10 µM.

`COc1cc(OCC2CC2)c(/C=C/C(=O)c2ccc(C(=O)O)cc2)cc1-c1cccs1` [Example 32, 4-[3E-(2-Cyclopropylmethoxy-4-methoxy-5-thiophen-2-yl-phenyl)-acryloyl]-benzoic acid] displayed a melting point of 187 to 191 °C. In addition, the IC50 in the data set with VCAM-1 (Homo sapiens, 16 h) was under 5 µM.

Consider `COc1cc(OCCCN2CCOCC2)c(/C=C/C(=O)c2ccc(C(=O)O)cc2)cc1-c1cccs1.Cl` [Example 66, 4-{3E-[4-Methoxy-2-(3-morpholin-4-yl-propoxy)-5-thiophen-2-yl-phenyl]-acryloyl}-benzoic acid, hydrochloride], for which the melting point was 188 to 191 °C (dec.). In the data set on VCAM-1 (Homo sapiens, 16 h), the IC50 is under 1 µM.

The compound `COc1cc(OC)c(-c2cn[nH]c2)cc1/C=C/C(=O)c1ccc(C(=O)O)cc1` [Example 74, 4-{3E-[2,4-Dimethoxy-5-(1H-pyrazol-4-yl)-phenyl]-acryloyl}-benzoic acid] showed a melting point of over 250 °C. Moreover, the half-inhibitory concentration (IC50) in the data set on VCAM-1 (Homo sapiens, 16 h) was over 10 µM.

Regarding `O=C(O)c1ccc(C(=O)/C=C/c2cccc(-c3cccs3)c2)cc1` [Example 42, 4-[3E-(3-Thiophen-2-yl-phenyl)-acryloyl]-benzoic acid], the melting point is 238 °C (dec.). The IC50 in the data set on VCAM-1 (Homo sapiens, 16 h) was under 5 µM.

The compound `CCOC(=O)CNC(=O)N(C(=O)NCC(=O)OCC)c1ccc(C(=O)/C=C/c2cc(OC)c(OC)c(-c3cccs3)c2)cc1` [Example 16, (3-[Ethoxycarbonylmethylaminocarbonyl]-3-{4-[3E-(3,4-dimethoxy-5-thiophen-2-yl-phenyl)-acryloyl]-phenyl}-ureido)-acetic acid ethyl ester] displayed a melting point of 83 to 86 °C. In the data set on VCAM-1 (Homo sapiens, 16 h), this compound came in with a half-maximal inhibitory concentration (IC50) of under 5 µM.

With `COc1cc(O)c(-c2cccs2)cc1/C=C/C(=O)c1ccc(C(=O)O)cc1` [Example 54, 4-[3E-(4-Hydroxy-2-methoxy-5-thiophen-2-yl-phenyl)-acryloyl]-benzoic acid], the melting point is 243 °C (dec.). This compound also showed an IC50 in the data set with VCAM-1 (Homo sapiens, 16 h) of under 10 µM.

The compound `O=C(O)c1ccc(C(=O)/C=C/c2ccc(-c3nccs3)cc2)cc1` [Example 5, 4-[3E-(4-Thiazol-2-yl-phenyl)acryloyl]-benzoic acid] yielded a melting point of 232 to 235 °C. Further, the IC50 in the data set on VCAM-1 (Homo sapiens, 16 h) is under 1 µM.

`COc1ccc(/C=C/C(=O)c2ccc(C(=O)O)cc2)cc1-c1cccs1` [Example 41, 4-[3E-(4-Methoxy-3-thiophen-2-yl-phenyl)-acryloyl]-benzoic acid] yielded a melting point of 219 to 220 °C. In the data set with VCAM-1 (Homo sapiens, 16 h), the half-inhibitory concentration (IC50) is under 5 µM.

The compound `COc1cc(OC)c(-c2cccn2C(=O)OC(C)(C)C)cc1/C=C/C(=O)c1ccc(C(=O)O)cc1` [Example 57, 2-{5-[3-(4-Carboxy-phenyl)-3-oxo-E-propenyl]-2,4-dimethoxy-phenyl}-pyrrole-1-carboxylic acid tert-butyl ester] came in with a melting point of 205 to 207 °C. Further, the IC50 in the data set on VCAM-1 (Homo sapiens, 16 h) was under 5 µM.

Turning to `COc1cc(OC)c(-c2ccc(C)s2)cc1/C=C/C(=O)c1ccc(C(=O)O)cc1` [Example 40, 4-{3E-[2,4-Dimethoxy-5-(5-methyl-thiophen-2-yl)-phenyl]-acryloyl}-benzoic acid], the melting point is 213 to 215 °C. For the same compound, the IC50 with VCAM-1 (Homo sapiens, 16 h) was under 1 µM.

`COc1cc(O)c(/C=C/C(=O)c2ccc(C(=O)O)cc2)cc1-c1cccs1` [Example 58, 4-[3E-(2-Hydroxy-4-methoxy-5-thiophen-2-yl-phenyl)-acryloyl]-benzoic acid]: the melting point is 125 °C (dec.). The same compound yielded an IC50 with VCAM-1 (Homo sapiens, 16 h) of over 10 µM.

The compound `COc1ccc(/C=C/C(=O)c2ccc(C(=O)O)cc2)c(-c2cccs2)c1` [Example 34, 4-[3E-(4-Methoxy-2-thiophen-2-yl-phenyl)-acryloyl]-benzoic acid] displayed a melting point of 209 to 211 °C. Besides, the half-maximal inhibitory concentration (IC50) with VCAM-1 (Homo sapiens, 16 h) is over 10 µM.

`COc1cc(OCC(CO)CO)c(-c2cccs2)cc1/C=C/C(=O)c1ccc(C(=O)O)cc1` [Example 50, 4-{3E-[4-(3-Hydroxy-2-hydroxymethyl-propoxy)-2-methoxy-5-thiophen-2-yl-phenyl]-acryloyl}-benzoic acid] had a melting point of 199 to 201 °C. The half-maximal inhibitory concentration (IC50) with VCAM-1 (Homo sapiens, 16 h) is over 10 µM.

`COc1cc(OCC(=O)N(C)C)c(/C=C/C(=O)c2ccc(C(=O)O)cc2)cc1-c1cccs1` [Example 67, 4-[3E-(2-Dimethylcarbamoylmethoxy-4-methoxy-5-thiophen-2-yl-phenyl)-acryloyl]-benzoic acid]: the melting point was 228 to 229 °C. This compound also returned an IC50 in the data set on VCAM-1 (Homo sapiens, 16 h) of under 10 µM.

(Values after patent publication US7094801B2, “Chalcone derivatives and their use to treat diseases” (Atherogenics, Inc., priority 2001, dated 2006).)
